Data reported in the supplement of paper PMC10627819.

Columns and labels:
S. aureus Newman [1] = test: fitness (endpoint OD595 vs no drug) (fraction); higher = more growth; conditions: one replicate
How it was run: (§1)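 Fitness was measured as bacterial growth in 384-well plates inoculated at OD595 0.01 (30 µl, or 55 µl for S. pneumoniae). Media were TSB, LB Lennox or CY, at 37 °C. OD595 was read every 30 min for 14 h and background-subtracted against the first reading. Fitness is OD595 at the transition into stationary phase divided by the robust mean of no-drug control wells, capped at 1.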

B. subtilis 168 [2] = test: as above
How it was run: as §1

S. pneumoniae D39V [3] = test: as above
How it was run: as §1

S. aureus DSM 20231 = test: Bliss interaction score (quartile over a dose matrix) (fitness difference); higher = more antagonism (negative = synergy)
How it was run: (§2)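 Quartiles of the Bliss score were taken over technical, biological and donor/recipient replicates. That score is observed fitness minus the product of the single-drug fitness values, which were inferred from combination data. Fitness itself is OD595 at entry into stationary phase divided by the plate's robust no-drug mean, with a cap at 1.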

S. aureus Newman [4] = test: as above
How it was run: as §2

B. subtilis 168 [5] = test: as above
How it was run: as §2

S. pneumoniae D39V [6] = test: as above
How it was run: as §2
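For Bliss interaction score (quartile over a dose matrix) in this document: first quartile when negative (synergy) and third quartile when positive (antagonism).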

CO/N=C(\C(=O)N[C@@H]1C(=O)N2C(C(=O)O)=C(COC(C)=O)CS[C@H]12)c1csc(N)n1 [Cefotaxime] + CC1=C\[C@@H](O)CC(=O)Cc2nc(co2)C(=O)N2CCC=C2C(=O)O[C@H](C(C)C)[C@H](C)/C=C/C(=O)NC\C=C\1 [Virginiamycin M1]
fitness
Conditions | partner 0.0625 µg/mL | partner 0.125 µg/mL | partner 0.25 µg/mL | partner 0.5 µg/mL | partner 1 µg/mL | partner 2 µg/mL
B. subtilis 168 [2], first compound 0.5 µg/mL | 0.23 | 0.246 | 0.239 | – | – | –
B. subtilis 168 [2], first compound 1 µg/mL | 0.085 | 0.0947 | 0.119 | – | – | –
B. subtilis 168 [2], first compound 2 µg/mL | 0.0507 | 0.082 | 0.0814 | – | – | –
S. aureus Newman [1], first compound 1.25 µg/mL | 0.0272 | 0.0702 | 0.0726 | – | – | –
S. aureus Newman [1], first compound 2.5 µg/mL | 0.0428 | 0.0329 | 0.0641 | – | – | –
S. pneumoniae D39V [3], first compound 0.0018 µg/mL | – | – | – | 0.991 | 1 | 0.947
S. pneumoniae D39V [3], first compound 0.0035 µg/mL | – | – | – | 0.975 | 0.95 | 0.966
S. pneumoniae D39V [3], first compound 0.007 µg/mL | – | – | – | 0.916 | 0.957 | 0.917

fitness, one replicate
Conditions | first compound 0.0018 µg/mL | first compound 0.0035 µg/mL | first compound 0.007 µg/mL | first compound 0.00775 µg/mL | first compound 0.0155 µg/mL | first compound 0.031 µg/mL
B. subtilis 168 [2], partner 0.0625 µg/mL | – | – | – | 0.854 | 0.695 | 0.554
B. subtilis 168 [2], partner 0.125 µg/mL | – | – | – | 0.833 | 0.683 | 0.557
B. subtilis 168 [2], partner 0.25 µg/mL | – | – | – | 0.833 | 0.673 | 0.583
S. pneumoniae D39V [3], partner 0.15 µg/mL | ≥ 1 | ≥ 1 | ≥ 1 | – | – | –
S. pneumoniae D39V [3], partner 0.3 µg/mL | 0.976 | ≥ 1 | 0.952 | – | – | –

Conditions | Bliss interaction score
B. subtilis 168 [5] | 0.0729
S. aureus DSM 20231 | 0.0452
S. aureus Newman [4] | -0.0479
S. pneumoniae D39V [6] | -0.0315
